{
  "source": "paper PMC10033419",
  "about": "“Blocking NS3–NS4B interaction inhibits dengue virus in non-human primates” (Nature, 2023)",
  "key": {"[1]": {"system": "NS3–NS4B interaction", "format": "cell-based", "conditions": "for EC50: single replicates, read-out: EC50 (NS3/4B interaction), IP"}, "[2]": {"system": "DENV-2 RL strain", "experiment": "Survival study, lethal DENV challenge with 4G2 antibody", "format": "in vivo, AG129 mice"}},
  "note": "Values joined by “and” are separate entries in the source; they are usually repeats but may differ in a detail not shown here. Equal values may be shown once. Read-outs that look alike come from different tables or passages of the source.",
  "data": [
    {"smiles": "COc1cc(N[C@H](C(=O)c2c[nH]c3ccc(OC(F)(F)F)cc23)c2ccc(Cl)cc2OC)cc(S(C)(=O)=O)c1", "note": "[JNJ-1802]", "values": [
      {"measurement": "EC50", "setting": "[1]; L94F", "value": "[…]"},
      {"measurement": "EC50", "setting": "[1]; T108I", "value": "[…]"},
      {"measurement": "EC50", "setting": "[1]; V91A", "value": "[…]"},
      {"measurement": "EC50", "setting": "[1]; WT", "value": "[…]"},
      {"measurement": "effect on NS3–NS4B complexes", "setting": "[1]; time of addition", "value": "[…]"},
      {"measurement": "survival", "setting": "[2]; 0.6–20 mg per kg per day, b.i.d., vehicle 0%", "value": "≥ 80", "unit": "%"},
      {"measurement": "% Survival", "setting": "[2]; 802R_0.3, BID, d p.i. 0", "value": 100, "unit": "%"},
      {"measurement": "% Survival", "setting": "[2]; 802R_0.3, BID, d p.i. 1", "value": 100, "unit": "%"},
      {"measurement": "% Survival", "setting": "[2]; 802R_0.3, BID, d p.i. 4", "value": 100, "unit": "%"},
      {"measurement": "% Survival", "setting": "[2]; 802R_0.3, BID, d p.i. 5", "value": 100, "unit": "%"},
      {"measurement": "% Survival", "setting": "[2]; 802R_0.3, BID, d p.i. 6", "value": 100, "unit": "%"},
      {"measurement": "% Survival", "setting": "[2]; 802R_0.3, BID, d p.i. 7", "value": 100, "unit": "%"},
      {"measurement": "% Survival", "setting": "[2]; 802R_0.3, BID, d p.i. 8", "value": 100, "unit": "%"},
      {"measurement": "% Survival", "setting": "[2]; 802R_0.3, BID, d p.i. 9", "value": 100, "unit": "%"},
      {"measurement": "% Survival", "setting": "[2]; 802R_0.3, BID, d p.i. 10", "value": 100, "unit": "%"},
      {"measurement": "% Survival", "setting": "[2]; 802R_0.3, BID, d p.i. 11", "value": 100, "unit": "%"},
      {"measurement": "% Survival", "setting": "[2]; 802R_0.3, BID, d p.i. 12", "value": 100, "unit": "%"},
      {"measurement": "% Survival", "setting": "[2]; 802R_0.3, BID, d p.i. 13", "value": 100, "unit": "%"},
      {"measurement": "% Survival", "setting": "[2]; 802R_0.3, BID, d p.i. 14", "value": 100, "unit": "%"},
      {"measurement": "% Survival", "setting": "[2]; 802R_0.3, BID, d p.i. 15", "value": 100, "unit": "%"},
      {"measurement": "% Survival", "setting": "[2]; 802R_0.3, BID, d p.i. 16", "value": 100, "unit": "%"},
      {"measurement": "% Survival", "setting": "[2]; 802R_0.3, BID, d p.i. 17", "value": 90, "unit": "%"},
      {"measurement": "% Survival", "setting": "[2]; 802R_0.3, BID, d p.i. 18", "value": 90, "unit": "%"},
      {"measurement": "% Survival", "setting": "[2]; 802R_0.3, BID, d p.i. 19", "value": 90, "unit": "%"},
      {"measurement": "% Survival", "setting": "[2]; 802R_0.3, BID, d p.i. 20", "value": 90, "unit": "%"},
      {"measurement": "% Survival", "setting": "[2]; 802R_0.3, BID, d p.i. 21", "value": 90, "unit": "%"},
      {"measurement": "% Survival", "setting": "[2]; 802R_0.3, BID, d p.i. 22", "value": 90, "unit": "%"},
      {"measurement": "% Survival", "setting": "[2]; 802R_0.3, BID, d p.i. 23", "value": 90, "unit": "%"},
      {"measurement": "% Survival", "setting": "[2]; 802R_0.3, BID, d p.i. 24", "value": 90, "unit": "%"},
      {"measurement": "% Survival", "setting": "[2]; 802R_0.3, BID, d p.i. 25 = end of study", "value": 90, "unit": "%"},
      {"measurement": "% Survival", "setting": "[2]; 802R_1, BID, d p.i. 0", "value": 100, "unit": "%"},
      {"measurement": "% Survival", "setting": "[2]; 802R_1, BID, d p.i. 1", "value": 100, "unit": "%"},
      {"measurement": "% Survival", "setting": "[2]; 802R_1, BID, d p.i. 2", "value": 100, "unit": "%"},
      {"measurement": "% Survival", "setting": "[2]; 802R_1, BID, d p.i. 4", "value": 100, "unit": "%"},
      {"measurement": "% Survival", "setting": "[2]; 802R_1, BID, d p.i. 5", "value": 100, "unit": "%"},
      {"measurement": "% Survival", "setting": "[2]; 802R_1, BID, d p.i. 6", "value": 100, "unit": "%"},
      {"measurement": "% Survival", "setting": "[2]; 802R_1, BID, d p.i. 7", "value": 100, "unit": "%"},
      {"measurement": "% Survival", "setting": "[2]; 802R_1, BID, d p.i. 8", "value": 100, "unit": "%"},
      {"measurement": "% Survival", "setting": "[2]; 802R_1, BID, d p.i. 9", "value": 100, "unit": "%"},
      {"measurement": "% Survival", "setting": "[2]; 802R_1, BID, d p.i. 10", "value": 100, "unit": "%"},
      {"measurement": "% Survival", "setting": "[2]; 802R_1, BID, d p.i. 11", "value": 100, "unit": "%"},
      {"measurement": "% Survival", "setting": "[2]; 802R_1, BID, d p.i. 12", "value": 100, "unit": "%"},
      {"measurement": "% Survival", "setting": "[2]; 802R_1, BID, d p.i. 13", "value": 100, "unit": "%"},
      {"measurement": "% Survival", "setting": "[2]; 802R_1, BID, d p.i. 14", "value": 100, "unit": "%"},
      {"measurement": "% Survival", "setting": "[2]; 802R_1, BID, d p.i. 15", "value": 100, "unit": "%"},
      {"measurement": "% Survival", "setting": "[2]; 802R_1, BID, d p.i. 16", "value": 100, "unit": "%"},
      {"measurement": "% Survival", "setting": "[2]; 802R_1, BID, d p.i. 17", "value": 100, "unit": "%"},
      {"measurement": "% Survival", "setting": "[2]; 802R_1, BID, d p.i. 18", "value": 100, "unit": "%"},
      {"measurement": "% Survival", "setting": "[2]; 802R_1, BID, d p.i. 19", "value": 100, "unit": "%"},
      {"measurement": "% Survival", "setting": "[2]; 802R_1, BID, d p.i. 20", "value": 100, "unit": "%"},
      {"measurement": "% Survival", "setting": "[2]; 802R_1, BID, d p.i. 21", "value": 100, "unit": "%"},
      {"measurement": "% Survival", "setting": "[2]; 802R_1, BID, d p.i. 22", "value": 100, "unit": "%"},
      {"measurement": "% Survival", "setting": "[2]; 802R_1, BID, d p.i. 23", "value": 100, "unit": "%"},
      {"measurement": "% Survival", "setting": "[2]; 802R_1, BID, d p.i. 24", "value": 100, "unit": "%"},
      {"measurement": "% Survival", "setting": "[2]; 802R_1, BID, d p.i. 25 = end of study", "value": 100, "unit": "%"},
      {"measurement": "% Survival", "setting": "[2]; 802R_3, BID, d p.i. 0", "value": 100, "unit": "%"},
      {"measurement": "% Survival", "setting": "[2]; 802R_3, BID, d p.i. 1", "value": 100, "unit": "%"},
      {"measurement": "% Survival", "setting": "[2]; 802R_3, BID, d p.i. 2", "value": 100, "unit": "%"},
      {"measurement": "% Survival", "setting": "[2]; 802R_3, BID, d p.i. 4", "value": 100, "unit": "%"},
      {"measurement": "% Survival", "setting": "[2]; 802R_3, BID, d p.i. 5", "value": 100, "unit": "%"},
      {"measurement": "% Survival", "setting": "[2]; 802R_3, BID, d p.i. 6", "value": 100, "unit": "%"},
      {"measurement": "% Survival", "setting": "[2]; 802R_3, BID, d p.i. 7", "value": 100, "unit": "%"},
      {"measurement": "% Survival", "setting": "[2]; 802R_3, BID, d p.i. 8", "value": 100, "unit": "%"},
      {"measurement": "% Survival", "setting": "[2]; 802R_3, BID, d p.i. 9", "value": 100, "unit": "%"},
      {"measurement": "% Survival", "setting": "[2]; 802R_3, BID, d p.i. 10", "value": 100, "unit": "%"},
      {"measurement": "% Survival", "setting": "[2]; 802R_3, BID, d p.i. 11", "value": 100, "unit": "%"},
      {"measurement": "% Survival", "setting": "[2]; 802R_3, BID, d p.i. 12", "value": 100, "unit": "%"},
      {"measurement": "% Survival", "setting": "[2]; 802R_3, BID, d p.i. 13", "value": 100, "unit": "%"},
      {"measurement": "% Survival", "setting": "[2]; 802R_3, BID, d p.i. 14", "value": 100, "unit": "%"},
      {"measurement": "% Survival", "setting": "[2]; 802R_3, BID, d p.i. 15", "value": 100, "unit": "%"},
      {"measurement": "% Survival", "setting": "[2]; 802R_3, BID, d p.i. 16", "value": 100, "unit": "%"},
      {"measurement": "% Survival", "setting": "[2]; 802R_3, BID, d p.i. 17", "value": 100, "unit": "%"}
    ]}
  ]
}
